The values below come from patent publication US20240058308A1, “TREATMENT AND PREVENTION OF DRY MACULAR DEGENERATION” (The Regents of the University of Michigan, priority 2021, published 2024).

Molecules are shown by their SMILES. Read-outs that look alike come from different tables or passages of the source.

The test system of series [1] is primary human fetal RPE (hfRPE) culture. Briefly: Autophagy induction by LC3 lipidation (LC3-II/LC3-I ratio) on Western blot. The series is classed as cell-based. As to conditions: 24 hours exposure, vs vehicle (DMSO). On the procedure:
(§1) Cell cultures were exposed to each putative autophagy inducer at a concentration indicated in Table 1 for 24 hours, lysed with 36 μL of SDS sample buffer with β-mercaptoethanol, with 15 μg of lysate loaded on a 4-15% gradient gel followed by transfer to a PVDF membrane. Blots were incubated with 1:1000 of LC3A/B antibody (Cell Signaling Technology; #4108s, RRID:AB_2137703) overnight. Quantifying LC3-II/LC3-I ratio is a well-accepted method for det 306 ermining autophagy induction [Ref. 44; incorporated by reference in its entirety], and this ratio was quantified in a non-saturated, linear range using the Azure c500 Imaging System (Azure Biosystems, Dublin, CA, USA) and a combination of AzureSpot and ImageJ software. The data in FIG. 2A are not normalized, whereas the data in FIGS. 2b and 1c are normalized to the average combined value of the vehicle and drug groups within each experimental repeat. The extreme pigmentation of human fetal cultures, combined with the destruction of the LC3 epitope with melanin bleaching protocols, makes detection of LC3 by microscopy in hfRPE difficult. A range of LC3 staining and puncta quantification protocols specifically adapted to pigmented hfRPE culture were employed [Ref. 43; incorporated by reference in its entirety]. At least five fields of view were randomly chosen and analyzed per experimental replicate for LC3 immunocytochemistry.
To test for autophagy induction, lipidation of the core autophagy protein LC3 was measured by mobility shift on Western blots 24 hours after each compound was added to hfRPE cultures [Ref. 44; incorporated by reference in its entirety]. […] Of the more than 30 putative autophagy inducers tested, only five produced an increased ratio of LC3-II/LC3-I, consistent with increased autophagy (FIG. 2a).
Autophagy induction was measured by LC3-II/LC3-I Ratios on Western Blot (standard method for autophagy induction) (FIG. 18A-C). Drugs were applied to primary human RPE culture for 24 hours.

Series [2] has the same test system. Briefly: Autophagy induction by LC3 puncta formation (immunocytochemistry). As to conditions: 24 hours exposure. The series is classed as cell-based. As to the method: as §1
Autophagy induction was confirmed by assaying the formation of LC3-positive puncta (autophagosomes) by immunocytochemistry [Ref. 44; incorporated by reference in its entirety]. Puncta formation was quantified in automated/unbiased fashion using a customized macro in the Fiji/ImageJ platform [Ref. 43; incorporated by reference in its entirety].
Autophagy induction was measured by LC3 puncta on immunocytochemistry (standard method for autophagy induction) (FIG. 19). Drugs applied to primary human RPE culture for 24 hours.

For series [3] the test system is unchanged. Briefly: Autophagy flux assay with NH4Cl lysosomal alkalinization. Format: cell-based. As to conditions: inducer 22.5 hours, then 25 mM NH4Cl for final 1.5 hours.
Experimental: Cultures were exposed to compounds or vehicle (DMSO) for 24 hours. […] (C) Autophagy flux assays. After application of inducers or vehicle (DMSO) for 22.5 hours, 25 mM of NH4Cl, a lysosomal alkalizing agent, or H2O were added for a final 1.5 hours to inhibit autophagy flux.
Increases in both LC3 lipidation and autophagosome formation could result from downstream blockade of autophagy at the lysosome.
Series [4] has as its system primary hfRPE culture. Briefly: Trans-epithelial electrical resistance (TEER), tight-junction integrity. The series is classed as cell-based. As to the method:
(§2) TEER and cell death were measured [Ref 51; incorporated by reference in its entirety]. For cell death assays, maximum possible LDH release per Transwell was measured immediately after 2 μL of the final experimental supernate was taken. The Transwell and supernate was then treated with 0.2% Triton X-100 for 15 minutes at 37° C. followed by collection of an additional 2 μL of supernate. Each experimental LDH release value was first normalized to total LDH release from the vehicle condition. Additionally, all TEER and LDH release measurements were normalized to the vehicle group at the zero-hour timepoint.
(§3) To evaluate the safety of D4476 and FLBZ, trans-epithelial electrical resistance (TEER) was measured, a measure of tight-junction integrity, in RPE cultures after prolonged exposure to each compound. As well-formed tight-junctions require myriad cell processes to be optimally coordinated, assessing TEER provides an easily measurable, ongoing, and noninvasive marker for general RPE cell health [Ref. 45; incorporated by reference in its entirety]. […] Lactate dehydrogenase (LDH) release, a combined marker of necrotic and late-stage apoptotic cell death [Refs. 47,48; incorporated by reference in their entireties], was reduced compared to vehicle for all four verified RPE autophagy inducers (FIG. 3b). Exposure of RPE cultures to the oxidant tert-butyl hydroperoxide confirmed the ability of the assay to detect cell death (FIG. 10).
Transepithelial Electrical Resistance (TEER) was tested (FIGS. 16 and 17). TEER is a sensitive measure of toxicity (lower the TEER, the more toxic the drug is). Drugs were added daily and measurements made daily for at least 4-8 days.

In series [5] the test system is primary hfRPE culture. Briefly: Outer segment (OS) phagocytosis efficiency (rhodopsin disappearance). The conditions noted are these: bovine outer segments, pulse-only method.
Experimental: (§4) Phagocytosis assays using bovine outer segments was performed using the “pulse-only” method [Ref 43; incorporated by reference in its entirety]. Values at the zero-hour timepoint were used for normalization.
For series [6], the system named is primary hfRPE culture.
Experimental: as §4
Series [7] has as its system primary hfRPE culture. Briefly: Undigestible autofluorescent material (UAM) accumulation, elimination and granule size after oxOS feedings. Format: cell-based, human. As to conditions: fed daily with oxOS over a month; FLBZ 12 μM, Torin 1 μM; vs vehicle.
Another series concerns RPE of mouse eye. Briefly: Intravitreal injection in mouse eyes, autophagy by LC3II/LC3I ratio of lysates. The series is classed as in vivo. As to conditions: four concentrations up to 500 uM, multiple timepoints, DMSO in other eye. On the procedure: Experiments were conducted during development of embodiments herein to assay for autophagy in the mouse eye. Experiments were conducted to measure autophagy by giving an intraperitoneal injection of leupeptin, followed by assaying for LC3 puncta in an RPE flatmount of a GFP-LC3 mouse. Background from GFP-LC3 debris deposited on the RPE when the retina was peeled off for the flat mount prevented signal detection. A biochemical assay was then employed for autophagy induction, measuring an increase in the lipidation of the autophagy core protein LC3 (lipidated LC3=LC3-II, unlipidated LC3=LC3-I, so higher LC3-II/LC3-I ratio indicates autophagy induction). Sufficient signal as obtained. […] Harvesting techniques were also optimized for collecting RPE from mouse eyes.
Experiments were conducted during development of embodiments herein to establish a positive control for autophagy induction. […] Autophagy induction was measured at 4 different concentrations of Torin (500 nm, 5 um, 50 um, 500 um) and at 5 different timepoints after injection (1 day, 3 days, 7 days, 14 days, 28 days). […] Nevertheless, the ability of intravitreal injections of FLBZ to induce autophagy in the RPE was assessed. In preparation for injecting FLBZ intravitreally into mice, solubility assays were performed and the maximum amount of FLBZ that can be injected without it crashing out of solution in the vitreous was determined. […]

The next series relates to RPE from mouse eyecups. Briefly: Ex vivo mouse eyecup autophagy induction (LC3II/LC3I ratio). As to conditions: mouse RPE/choroid eyecup, 24 hours; Torin 1-5 uM, FLBZ 12-60 uM. As to the method:
FIG. 14. Effect of autophagy positive control Torin on RPE from mouse eyecups (DMSO as control). […] Mouse eyes were enucleated, the anterior segment vitreous, and retina were removed, leaving an eyecup with RPE/choroid exposed. […] RPE/Choroid eyecup was treated with 1 uM Torin1 in our previously established RPE cell culture media for 24 hours. n=4.
FIG. 15. Effect of Flubendazole on RPE from Mouse Eyecups (DMSO as control). Conditions with and without ammonium chloride (NH4Cl) help establish high autophagy flux rates. If true autophagy flux is happening, the LC3II/LC3I ratio should increase further upon addition of NH4Cl, as is the case here. DMSO− and FLBZ−, n=6, FLBZ+ and DMSO+ n=5. Flubendazole tested at 60 uM, lysates collected after 24 hours. Induction did occur in eyecups.
Given the inconsistent results with detecting autophagy induction using intravitreal injection of the positive control, Torin, experiments were conducted to determine whether the lack of responsiveness to intravitreal injections was a drug access issue or whether it was a species or animal vs. culture difference. Additional experiments utilized freshly isolated mouse eyecups with the retina removed to determine whether Torin (and FLBZ) induce autophagy in this context. […] The use of ammonium chloride in these experiments blocks lysosomal degradation.

Series [8] is described as follows: Solubility assays of DMSO stock mixed with PBS (simulating the vitreous). Format: physicochemical. The conditions noted are these: Torin 1 mM stock mixed 1:1 with PBS; flubendazole 3 mM stock. On the procedure:
Experiments were conducted during development of embodiments herein to establish a positive control for autophagy induction. The direct mTOR inhibitor Torin1 was selected over rapamycin/sirolimus as the positive control, based on the capacity of Torin1 to induce autophagy in primary culture more strongly and more consistently than rapamycin. The experimental set-up involved injecting one eye with Torin and the other eye with the DMSO vehicle. Autophagy induction was measured at 4 different concentrations of Torin (500 nm, 5 um, 50 um, 500 um) and at 5 different timepoints after injection (1 day, 3 days, 7 days, 14 days, 28 days). […] Nevertheless, the ability of intravitreal injections of FLBZ to induce autophagy in the RPE was assessed. In preparation for injecting FLBZ intravitreally into mice, solubility assays were performed and the maximum amount of FLBZ that can be injected without it crashing out of solution in the vitreous was determined. […] This helped inform maximal concentrations of flubendazole that could be injected intravitreally. Four different concentrations were injected, up to the maximum solubility of FLBZ, and autophagy induction was assayed over a timeframe ranging from 1 week to 4 weeks after injection.

Series [9] deals with primary hfRPE culture. Briefly: Cytotoxicity by LDH release. Format: cell-based, human. The conditions noted are these: 24 hours exposure. On the procedure:
as §2
as §3, with “Exposure of RPE cultures to the oxidant tert-butyl hydroperoxide confirmed the ability of the assay to detect cell death (FIG. 10).” left out
(LDH in the medium is a marker of cell lysis.)

Setting [10] is: prolonged exposure, drug or vehicle (DMSO) replaced daily.

`CCCCc1oc2ccccc2c1C(=O)c1cc(I)c(OCCN(CC)CC)c(I)c1` [Amiodarone]: in [1], the “LC3-II/LC3-I ratio (autophagy induction)” value is recorded as “Induction of autophagy”.

As for `NC(=O)c1ccc(-c2nc(-c3ccc4c(c3)OCCO4)c(-c3ccccn3)[nH]2)cc1` [D4476], the “LC3-II/LC3-I ratio (autophagy induction)” value in series [1] is listed as “Induction of autophagy”. Further, the “LC3 puncta formation (autophagy induction)” value (shortened to “LC3 puncta formation”) in [2] is “induced autophagy”. Also, the “Autophagy flux: LC3-II/LC3-I ratio after NH4Cl” value in series [3] was “induces autophagy flux”. In addition, in the series with primary hfRPE culture [4] (setting [10]), the “TEER (tight-junction integrity)” value is “more modest impact”. Also, the “OS phagocytosis efficiency / OS degradative capacity” value in the series with primary hfRPE culture [5] is reported as “no effect on OS degradative capacity”.

As to `O=C1NC(=O)/C(=C/c2ccc3nccc(-c4ccncc4)c3c2)S1` [GSK, GSK 1059615], the “LC3-II/LC3-I ratio (autophagy induction)” value in series [1] is reported as “upregulate autophagy”. In addition, in series [2], the “LC3 puncta formation” value is given as “induced autophagy”. In series [3], the “Autophagy flux: LC3-II/LC3-I ratio after NH4Cl” value was “induces autophagy flux”. Also, in the series on primary hfRPE culture [4] (setting [10]), the “TEER (tight-junction integrity)” value is on record as “dramatically reduced TEER”. For the same compound, the “OS phagocytosis efficiency / OS degradative capacity” value with primary hfRPE culture [6] is on record as “reduces phagocytosis efficiency”.

Take `CC(C)(Sc1ccc(CCN(CCCCC2CCCCC2)C(=O)NC2CCCCC2)cc1)C(=O)O` [GW7647]: the “LC3-II/LC3-I ratio (autophagy induction)” value in series [1] is reported as “Induction of autophagy”.

Turning to `O=C(NCC1(N2CCN(c3ccccc3)CC2)CCOCC1)c1cccnc1Sc1ccccc1` [JNJ, JNJ-47965567], the “LC3-II/LC3-I ratio (autophagy induction)” value in [1] is listed as “Induction of autophagy”.

As for `CCC(=O)N1CCN(c2ccc(-n3c(=O)ccc4cnc5ccc(-c6cnc7ccccc7c6)cc5c43)cc2C(F)(F)F)CC1` [Torin, Torin1], the “LC3-II/LC3-I ratio (autophagy induction)” value in series [1] is recorded as “upregulate autophagy”. In [2], the “LC3 puncta formation” value is reported as “induced autophagy”. Moreover, the “Autophagy flux: LC3-II/LC3-I ratio after NH4Cl” value in [3] is “induces autophagy flux”. Besides, the “TEER (tight-junction integrity)” value with primary hfRPE culture [4] is recorded as “dramatically reduced TEER”. The “UAM accumulation, drug fed concurrently with oxOS” value in the series on primary hfRPE culture [7] was “more UAM accumulation”. The “Autophagy induction in RPE after intravitreal injection (LC3II/LC3I ratio)” value in the series with RPE of mouse eye is “No concentration or time after injection provided convincing evidence for replicable autophagy induction”. Further, the “Autophagy induction in eyecups (LC3II/LC3I ratio)” value in the series with RPE from mouse eyecups was “induces autophagy well”. In series [8], the “Precipitation of DMSO stock solution when mixed with PBS” value was “did not crash out”. Besides, in the series with primary hfRPE culture [6], the “OS phagocytosis efficiency / OS degradative capacity” value is “reduces phagocytosis efficiency”.

With `COc1cc2c(Oc3ccc4[nH]c(C)cc4c3F)ccnc2cc1OCC1(N)CC1` [anlotinib], the “LC3-II/LC3-I ratio (autophagy induction)” value in series [1] is given as “evidence for autophagy induction”. In addition, the “LC3 puncta formation” value in series [2] is recorded as “confirming autophagy induction”. The “TEER (toxicity), Example 3” value with primary hfRPE culture [4] was “No toxicity is observed”.

Consider `N#CC1(c2ccc(NC(=O)c3cccnc3NCc3ccncc3)cc2)CCCC1` [apatinib], for which the “LC3-II/LC3-I ratio (autophagy induction)” value in series [1] was “evidence for autophagy induction”. Moreover, in [2], the “LC3 puncta formation” value is on record as “confirming autophagy induction”. The “TEER (toxicity), Example 3” value with primary hfRPE culture [4] is listed as “No toxicity is observed”.

As to `CCN(CC)CCNC(=O)c1c(C)[nH]c(/C=C2\C(=O)Nc3ccc(F)cc32)c1C` [sunitinib], the “TEER (toxicity), Example 3” value with primary hfRPE culture [4] is given as “No toxicity is observed”.

As to `CC(C)(C)OO` [tBHP, tert-butyl hydroperoxide], the “LDH release after oxidant exposure (assay validation)” value with primary hfRPE culture [9] is reported as “marked increase in LDH release”.
